Key:
[1] = not given; remark: listed apart in the source
[2] = not given; remark: listed apart in the source
[3] = tested on: NIH/3T3, BV2 and HeLa cells; experiment: XTT cytotoxicity assay; format: cell-based, mouse, human; details: XTT assay, 12, 30, 60, 120 μM, 24 h
Protocol: Supplementary Figure 4. Cytotoxicity of two-photon enzymatic probes (12, 30, 60, 120 μM) in mammalian cells (NIH/3T3, BV2 and HeLa) after incubation for 24 h, as determined by XTT assay. […]
Detection of caspase activities in mammalian cells and tissues
Cell culture. The mouse embryonic fibroblast cell line (NIH/3T3), mouse microglial cell line (BV2) and human epithelial carcinoma cell line (HeLa) used in our experiments were cultured in Dulbecco’s Modified Eagle's Medium (DMEM) supplemented with 10% (for NIH/3T3 and HeLa) or 5% (for BV2) fetal bovine serum (FBS), 100.0 mg/L streptomycin and 100 IU/mL penicillin in a humidified atmosphere of 5% CO2 at 37 °C.
XTT assay. The cytotoxicity of our probes was determined by using the XTT colorimetric cell proliferation kit (Roche) following manufacturer’s guidelines. Briefly, NIH/3T3, BV2 and HeLa cells were seeded in 20~30% confluency (since they will reach >50% confluency within 24 h) into 96-well plates and incubated overnight before the addition of probes with concentrations of 12 μM, 30 μM, 60 μM and 120 μM, respectively. Probes were applied from DMSO stocks whereby DMSO never exceeded 1% in the final solution. The same volume of DMSO was used as a negative control; and the same volume of STS (200 nM) was used as a positive control. After a total treatment time of 24 h, proliferation was assayed using the XTT assay (Supplementary Fig. 4). […]

HeLa cells = experiment: Permeability of free dye and probes in live cells (fluorescence imaging); format: cell-based, human; details: HeLa cells, DMSO/STS 1 μM 4 h, then probe 24 μM 1 h at 4 °C or 37 °C, one-photon imaging
Protocol: Supplementary Figure 5. Detection of caspase activities in live mammalian cells. (a) One-photon images of AAN (5 μM)/probes (24 μM)/DMSO (blank) in live HeLa cells after 1-h incubation together with LysoTracker. (Panels 1-7) bright field; (Panels 8-14) λex = 405 nm, λem = 420-480 nm (indicative of probes, blue); (Panels 15-21) λex = 405 nm, λem = 470-500 nm (indicative of AAN, green); (Panels 22-28) LysoTracker (λex = 543 nm, λem = 560-615 nm, red); (Panels 29-35) merged images of blue/red channels. Scale bar: 20 μm. (b) Bioimaging of NIH/3T3 cells transfected with active caspase-1 (Panels 2/3/5/6; 50 ng)/caspase-3 (Panels 8/9; 15 ng)/caspase-8 (Panels 11/12; 5 ng) with/without inhibitor treatment (Panels 3/6/9/12, 50 μM of Z-VAD-FMK incubated for 1 h before probes were added) as well as control cells (Panels 1/4/7/10, no caspase transfection) by using C1RB (24 μM)/C1FS (12 μM) for caspase-1, C3RA (24 μM) for caspase-3 and C8RA (24 μM) for caspase-8. Cells were co-stained with membrane tracker. (Green) signals from caspase-cleaved probes (λex = 760 nm, λem = 480-550 nm for all probes, except for C1FS with λem = 450-550 nm). (Red) membrane tracker (λex = 650 nm, λem = 655-740 nm). (Inset) bright field. Scale bar = 10 μm. […]
XTT assay. The cytotoxicity of our probes was determined by using the XTT colorimetric cell proliferation kit (Roche) following manufacturer’s guidelines. […]

CC(=O)N[C@@H](CC(=O)O)C(=O)N[C@@H](CCC(=O)O)C(=O)N[C@H](C(=O)N[C@@H](CC(=O)O)C(=O)Nc1ccc2cc(C(C)=O)ccc2c1)C(C)C [C3RA, Ac-DEVD-AAN]
λex (absorption/excitation maximum): 316 nm
λem (emission maximum) [1]: 448 nm
δΦ (two-photon action cross-section) [2]: 2.9 GM
cytotoxicity [3]: minimally cytotoxic
endocytosis and endo/lysosomal trapping of the probe (HeLa cells): no obvious
